Assay results taken from US12528767B2, “HDAC6 inhibitors and uses thereof” (Eikonizo Therapeutics, Inc., priority 2019, dated 2026).
Read-outs that look alike come from different tables or passages of the source.

Experiments:
Full length Human HDAC1 = Full length Human HDAC1 (Homo sapiens, UniProt Q13547)
Full length Human HDAC6 = molecular target: T1, Full length Human HDAC6 (Homo sapiens, UniProt Q9UBN7); details: for Selectivity (6 v 8) (fold): ratio of HDAC8 IC50/HDAC6 IC50
T1 sequence (Q9UBN7 1-1215): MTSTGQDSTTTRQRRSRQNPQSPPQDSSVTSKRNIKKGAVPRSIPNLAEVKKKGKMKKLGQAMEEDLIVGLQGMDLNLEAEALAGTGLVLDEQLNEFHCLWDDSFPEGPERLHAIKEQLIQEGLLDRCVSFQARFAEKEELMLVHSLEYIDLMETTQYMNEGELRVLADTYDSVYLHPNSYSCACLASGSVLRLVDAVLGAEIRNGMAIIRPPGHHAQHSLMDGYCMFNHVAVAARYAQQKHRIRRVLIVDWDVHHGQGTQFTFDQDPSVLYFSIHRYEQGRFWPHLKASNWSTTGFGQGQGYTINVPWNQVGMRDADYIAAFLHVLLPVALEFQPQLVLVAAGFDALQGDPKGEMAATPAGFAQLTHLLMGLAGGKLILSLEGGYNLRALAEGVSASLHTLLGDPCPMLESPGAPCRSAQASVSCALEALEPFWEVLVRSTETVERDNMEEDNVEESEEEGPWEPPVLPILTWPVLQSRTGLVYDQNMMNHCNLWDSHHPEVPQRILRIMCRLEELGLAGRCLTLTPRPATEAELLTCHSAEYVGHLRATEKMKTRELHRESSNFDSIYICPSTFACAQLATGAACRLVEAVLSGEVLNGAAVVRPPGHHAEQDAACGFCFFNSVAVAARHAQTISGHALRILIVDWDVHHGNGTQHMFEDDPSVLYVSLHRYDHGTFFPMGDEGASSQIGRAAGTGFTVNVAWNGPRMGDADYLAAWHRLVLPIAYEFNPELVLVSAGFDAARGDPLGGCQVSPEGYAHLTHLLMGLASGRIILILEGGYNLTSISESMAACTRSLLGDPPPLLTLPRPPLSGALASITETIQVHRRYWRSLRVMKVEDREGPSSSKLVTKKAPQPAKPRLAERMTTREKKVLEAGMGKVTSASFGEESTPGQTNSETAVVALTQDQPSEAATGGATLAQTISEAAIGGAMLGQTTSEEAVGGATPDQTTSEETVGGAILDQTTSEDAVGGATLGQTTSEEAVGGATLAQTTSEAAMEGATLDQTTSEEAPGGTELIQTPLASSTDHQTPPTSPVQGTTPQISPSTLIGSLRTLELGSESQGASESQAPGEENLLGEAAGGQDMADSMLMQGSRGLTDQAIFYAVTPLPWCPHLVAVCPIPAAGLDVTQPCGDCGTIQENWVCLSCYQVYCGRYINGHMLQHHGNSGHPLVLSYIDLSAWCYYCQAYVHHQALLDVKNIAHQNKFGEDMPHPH

Human HDAC7 aa 518-end = molecular target: T2, Human HDAC7 aa 518-end (Homo sapiens, UniProt Q8WUI4)
T2 sequence (Q8WUI4 518-952 limits assumed): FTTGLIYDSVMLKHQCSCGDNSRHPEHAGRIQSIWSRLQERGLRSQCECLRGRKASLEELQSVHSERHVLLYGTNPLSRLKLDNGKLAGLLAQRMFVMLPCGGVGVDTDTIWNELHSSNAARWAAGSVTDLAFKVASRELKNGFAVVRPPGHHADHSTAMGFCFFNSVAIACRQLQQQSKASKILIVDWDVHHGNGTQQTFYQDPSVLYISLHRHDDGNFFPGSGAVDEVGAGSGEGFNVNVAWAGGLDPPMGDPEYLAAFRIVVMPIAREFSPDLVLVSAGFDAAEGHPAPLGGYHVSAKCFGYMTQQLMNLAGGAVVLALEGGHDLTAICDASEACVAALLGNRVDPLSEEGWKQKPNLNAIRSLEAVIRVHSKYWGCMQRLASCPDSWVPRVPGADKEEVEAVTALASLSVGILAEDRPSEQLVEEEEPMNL

Full length Human HDAC8 = molecular target: T3, Full length Human HDAC8 (Homo sapiens, UniProt Q9BY41)
T3 sequence (Q9BY41 1-377): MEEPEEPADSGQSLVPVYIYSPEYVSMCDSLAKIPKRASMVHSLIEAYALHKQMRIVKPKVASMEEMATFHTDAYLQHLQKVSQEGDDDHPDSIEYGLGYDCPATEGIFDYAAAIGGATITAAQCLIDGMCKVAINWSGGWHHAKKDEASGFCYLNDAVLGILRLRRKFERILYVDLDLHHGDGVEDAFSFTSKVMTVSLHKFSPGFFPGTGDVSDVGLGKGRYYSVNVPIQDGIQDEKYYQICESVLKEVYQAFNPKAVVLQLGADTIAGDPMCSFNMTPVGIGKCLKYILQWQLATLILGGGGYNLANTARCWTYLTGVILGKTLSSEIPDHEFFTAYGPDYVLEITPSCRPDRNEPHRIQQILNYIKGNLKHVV

[1] = molecular target: Human HDAC9 a.a. 604-1066 (Homo sapiens, UniProt Q9UKV0)
[2] = In vivo assessment of brain penetration in mice (IV 1 mg/kg, plasma and brain levels); details: mouse, BL/6 mice; for Kp at 15 min / Kp at 60 min: brain and plasma, brain:plasma; for Kp at 15 min: read-out: Mouse B:P at 15 min; for Kp at 60 min: read-out: Mouse B:P at 60 min
Full length Human HDAC10 = molecular target: T4, Full length Human HDAC10 (Homo sapiens, UniProt Q969S8)
T4 sequence (Q969S8 1-669): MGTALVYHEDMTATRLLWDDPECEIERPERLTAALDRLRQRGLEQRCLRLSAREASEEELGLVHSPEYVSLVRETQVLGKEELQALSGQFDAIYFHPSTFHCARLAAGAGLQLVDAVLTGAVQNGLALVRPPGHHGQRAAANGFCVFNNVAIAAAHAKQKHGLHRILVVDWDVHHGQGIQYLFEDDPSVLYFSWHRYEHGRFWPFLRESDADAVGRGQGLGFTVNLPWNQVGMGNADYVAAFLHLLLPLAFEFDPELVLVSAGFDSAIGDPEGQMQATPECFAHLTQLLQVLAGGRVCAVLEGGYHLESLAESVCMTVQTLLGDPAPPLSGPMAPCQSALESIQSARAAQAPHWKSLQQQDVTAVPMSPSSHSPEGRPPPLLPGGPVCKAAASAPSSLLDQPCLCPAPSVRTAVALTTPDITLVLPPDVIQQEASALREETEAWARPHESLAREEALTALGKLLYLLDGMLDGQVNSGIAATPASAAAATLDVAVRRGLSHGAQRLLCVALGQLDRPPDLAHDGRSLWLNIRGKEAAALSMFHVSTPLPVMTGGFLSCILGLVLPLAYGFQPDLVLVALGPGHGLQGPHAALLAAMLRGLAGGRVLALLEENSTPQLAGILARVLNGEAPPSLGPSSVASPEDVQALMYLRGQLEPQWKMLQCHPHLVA

[3] = brain, read-out: Mouse Brain Conc (μM) at 15 min
[4] = brain, read-out: Mouse Brain Conc (μM) at 60 min
[5] = plasma, read-out: Mouse Plasma Conc (μM) at 15 min
[6] = plasma, read-out: Mouse Plasma Conc (μM) at 60 min
[7] = read-out: In vitro enzymatic IC50, HDAC Paralog 6, Table 2
[8] = read-out: In vitro enzymatic IC50, HDAC Paralog 8, Table 2

Chain of Full length Human HDAC1 (Q13547 whole entry): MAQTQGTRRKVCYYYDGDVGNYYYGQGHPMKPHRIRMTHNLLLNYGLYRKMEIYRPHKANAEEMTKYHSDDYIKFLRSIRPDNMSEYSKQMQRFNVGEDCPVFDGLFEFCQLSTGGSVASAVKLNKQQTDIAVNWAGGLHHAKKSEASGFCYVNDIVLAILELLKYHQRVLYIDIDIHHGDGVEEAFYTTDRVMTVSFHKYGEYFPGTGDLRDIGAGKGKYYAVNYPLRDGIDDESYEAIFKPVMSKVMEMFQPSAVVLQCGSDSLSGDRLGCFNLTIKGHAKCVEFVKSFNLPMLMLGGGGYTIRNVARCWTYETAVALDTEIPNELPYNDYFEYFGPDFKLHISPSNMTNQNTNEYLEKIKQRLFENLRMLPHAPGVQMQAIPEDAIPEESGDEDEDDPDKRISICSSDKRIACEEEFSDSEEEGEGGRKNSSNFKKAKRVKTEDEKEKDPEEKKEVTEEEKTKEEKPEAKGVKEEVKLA
Chain of Human HDAC9 a.a. 604-1066 (Q9UKV0 604-1066 isoform Q9UKV0-5): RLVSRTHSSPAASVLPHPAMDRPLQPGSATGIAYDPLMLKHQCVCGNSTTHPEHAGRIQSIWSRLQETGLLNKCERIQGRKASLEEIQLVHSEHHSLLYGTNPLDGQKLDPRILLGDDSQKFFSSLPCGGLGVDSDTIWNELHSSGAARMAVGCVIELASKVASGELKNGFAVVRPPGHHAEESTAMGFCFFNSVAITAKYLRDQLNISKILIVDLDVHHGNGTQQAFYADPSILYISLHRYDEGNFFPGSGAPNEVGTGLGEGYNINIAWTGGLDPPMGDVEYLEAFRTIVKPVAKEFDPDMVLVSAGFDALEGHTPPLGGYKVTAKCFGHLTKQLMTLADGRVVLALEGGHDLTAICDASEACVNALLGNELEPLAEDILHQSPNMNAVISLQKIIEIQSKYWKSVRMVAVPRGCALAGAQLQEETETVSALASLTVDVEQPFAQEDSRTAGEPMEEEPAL

Structure (SMILES) | IC50 (Full length Human HDAC1) [µM] | IC50 (Full length Human HDAC6) [µM] | IC50 (Human HDAC7 aa 518-end) [µM] | IC50 (Full length Human HDAC8) [µM] | IC50 [1] [µM] | Selectivity (6 v 8) (fold) (Full length Human HDAC6; Table 1, number) | Selectivity (6 v 8) (fold) (Full length Human HDAC6; Table 1, range class) | IC50 (Full length Human HDAC6; [7]) [µM] | IC50 (Full length Human HDAC8; [8]) [µM] | IC50 (Full length Human HDAC10) [µM] | concentration at 15 min [2, 3] [µM] | concentration at 60 min [2, 4] [µM] | concentration at 15 min [2, 5] [µM] | concentration at 60 min [2, 6] [µM] | Kp at 15 min [2] | Kp at 60 min [2]
O=C(NO)c1ccc2c(c1)C[C@@H]1CCCN1C2 (single isomer, unassigned) [compound 121] | – | – | – | – | – | 80.9 | III (III: >10-100) | – | – | – | 0.19 | 0.06 | 0.96 | 0.01 | 0.19 | 5.89
O=C(NO)c1ccc(CN2CCC3(C2)C2CC4CC(C2)CC3C4)c(F)c1 (stereo not shown) [compound 78] | – | 1 to 10 | 10 to 100 | 0.1 to 1 | – | 0.4 | I (I: 0.1-1) | 1 to 10 | 0.1 to 1 | > 100 | – | – | – | – | – | –
O=C(NO)c1cc(F)c2c(c1)CCN(CC1CCCCC1)C2 [compound 19] | – | 0.001 to 0.1 | 10 to 100 | 1 to 10 | – | – | – | 0.001 to 0.1 | 1 to 10 | 10 to 100 | – | – | – | – | – | –
O=C(NO)c1ccc(CN2C3CCCC2CCC3)c(F)c1 [compound 60] | – | 0.1 to 1 | 1 to 10 | 1 to 10 | – | 5.8 | II (II: >1-10) | 0.1 to 1 | 1 to 10 | > 100 | – | – | – | – | – | –
O=C(NO)c1cc(F)c(CN2CCC3(CCCCC3)C2)cc1F [compound 67] | – | 0.001 to 0.1 | 1 to 10 | 1 to 10 | – | 20 | III (III: >10-100) | 0.001 to 0.1 | 1 to 10 | 10 to 100 | – | – | – | – | – | –
O=C(NO)c1cc(F)c2c(c1)CCN(C1CC3(CCC3)C1)C2 [compound 112] | – | 0.001 to 0.1 | 10 to 100 | > 100 | – | >12414.6 | V (V: >1000) | 0.001 to 0.1 | > 100 | > 100 | – | – | – | – | – | –
O=C(NO)c1cc(F)c2c(c1)CN(CC13C4C5C6C4C1C6C53)CC2 (stereo not shown) [compound 116, 2-(cuban-1-ylmethyl)-5-fluoro-N-hydroxy-1,2,3,4-tetrahydroisoquinoline-7-carboxamide] | – | 0.001 to 0.1 | – | 0.1 to 1 | – | 11 | III (III: >10-100) | – | – | – | 0.39 | 0 | 0.25 | 0.02 | 1.57 | 0
CN1CC2(CCCCC2)CC[C@@H]1Cc1cc(F)cc(C(=O)NO)c1 (single isomer, unassigned) [compound 170] | – | 0.001 to 0.1 | 1 to 10 | 1 to 10 | – | 68 | III (III: >10-100) | 0.001 to 0.1 | 1 to 10 | 10 to 100 | – | – | – | – | – | –

Continued, in another order:

IC50 (Full length Human HDAC1) [µM] | IC50 (Full length Human HDAC6) [µM] | IC50 (Human HDAC7 aa 518-end) [µM] | IC50 (Full length Human HDAC8) [µM] | IC50 [1] [µM] | Selectivity (6 v 8) (fold) (Full length Human HDAC6; Table 1, number) | Selectivity (6 v 8) (fold) (Full length Human HDAC6; Table 1, range class) | IC50 (Full length Human HDAC6; [7]) [µM] | IC50 (Full length Human HDAC8; [8]) [µM] | IC50 (Full length Human HDAC10) [µM] | Structure (SMILES) | concentration at 15 min [2, 3] [µM] | concentration at 60 min [2, 4] [µM] | concentration at 15 min [2, 5] [µM] | concentration at 60 min [2, 6] [µM] | Kp at 15 min [2] | Kp at 60 min [2]
10 to 100 | 0.001 to 0.1 | 0.1 to 1 | 1 to 10 | 0.1 to 1 | – | – | – | – | – | C[C@@H]1C[C@H]2c3c(F)cc(C(=O)NO)cc3CCN2C1 (single isomer, unassigned) [compound 152] | – | – | – | – | – | –
> 100 | 0.001 to 0.1 | 1 to 10 | 1 to 10 | > 100 | – | – | – | – | – | O=C(NO)c1cc(F)c2c(c1)CN1CCC[C@@H]1C2 (single isomer, unassigned) [compound 124] | – | – | – | – | – | –
– | 0.001 to 0.1 | 1 to 10 | 10 to 100 | – | – | – | 0.001 to 0.1 | 10 to 100 | > 100 | O=C(NO)c1cc(F)c2c(c1)CCN(CC1COC1)C2 [compound 27] | – | – | – | – | – | –
– | 0.001 to 0.1 | 1 to 10 | 1 to 10 | – | – | – | – | – | 10 to 100 | O=C(NO)c1cc(F)c2c(c1)CCN1CCCC[C@@H]21 (single isomer, unassigned) [compound 139] | – | – | – | – | – | –
– | 0.001 to 0.1 | 1 to 10 | 1 to 10 | – | – | – | – | – | > 100 | CC1(C)C[C@@H]2Cc3c(F)cc(C(=O)NO)cc3CN2C1 (single isomer, unassigned) [compound 127] | – | – | – | – | – | –
– | 0.001 to 0.1 | 1 to 10 | 1 to 10 | – | – | – | – | – | > 100 | O=C(NO)c1cc(F)c2c(c1)C[C@@H]1CC3(CCCCC3)CN1C2 (single isomer, unassigned) [compound 136] | – | – | – | – | – | –
– | 0.001 to 0.1 | 10 to 100 | 1 to 10 | – | – | – | – | – | 10 to 100 | O=C(NO)c1ccc2c(c1)C[C@H]1COCC(=O)N1C2 (single isomer, unassigned) [compound 134] | – | – | – | – | – | –
– | 0.001 to 0.1 | 0.1 to 1 | 1 to 10 | – | – | – | – | – | > 100 | C[C@@H]1CC[C@H]2c3c(F)cc(C(=O)NO)cc3CCN12 (single isomer, unassigned) [compound 158] | – | – | – | – | – | –
